Positions count from the first letter of the chain named. In names and notes the source's numbering stands. Several values for one entry are separate records, joined by “and”; a condition that tells them apart may be missing. Equal values may be shown once.
Experiments:
human PBMCs = assay: T-cell epitope mapping, PBMC proliferation (tritiated thymidine) with 15 mer hirudin peptides; assay type: cell-based; settings: for donor response (SI>2): initial analysis, 25 donor samples, peptides at 1 μM and 10 μM, 7 days
PBMC from healthy donors = assay: time-course T-cell assay, PBMC proliferation with WT and variant peptides; assay type: cell-based, human; settings: cohorts of 20 healthy donors, SI>2 at any time point, days 6, 7, 8 and 9
Text: “Time course assay” refers to a biological assay such as a proliferation assay in which determinations of activity are made sequentially over a period of time. In the present context, a “time course T-cell assay”, refers to the determination of T-cell proliferation in response to a test immunogen (peptide) at multiple times following exposure to the test immunogen. The terms “time course T-cell assay” and “time course immunogenicity assay” may be used interchangeably herein.
Bulk cultures of 2-4×10^6 PBMC/well were established from 20 healthy donor samples in 24 well plates. Cells were incubated for 6 to 9 days with WT and variant peptides spanning the immunogenic regions (see Table 4). T cell proliferation was assessed by tritiated thymidine incorporation on days 6, 7, 8 and 9. Proliferation was assessed at each time point, by gently resuspending the bulk cultures and removing samples of PBMC, that were then incubated in triplicate wells of U-bottomed 96 well plate with 1 μCi/well tritiated thymidine for 18 hours as described above.
The time course assay was used to test variant peptides containing substitutions over WT. Substitutions were made at key locations where there was expectation that the substitution would prevent binding to MHC class II and therefore, subsequent T cell proliferation in the assay. FIG. 2 and FIG. 3 respectively show exemplary donor responses over the time course and overall response frequencies.

serine protease thrombin = serine protease thrombin (Homo sapiens, UniProt P00734); settings: native hirudin; cited from earlier work
[1] = cited from earlier work
thrombin = molecular target: T1, thrombin (Homo sapiens, UniProt P00734); assay: chromogenic thrombin inhibition assay; assay type: biochemical; settings: chromogenic substrate H-D-Phe-Pep-Arg-pNA, 37° C., relative to WT hirudin
T1 construct: purchased Diagnostica Stago (via Axis Shield Diagnostics, Dundee, UK) Stachrom HCII assay kit (catalogue number not given)
Text: A “thrombin inhibition assay” according to the present context means an in vitro assay able to provide a reading of the functional capability of the test protein. In the present instance this means the ability of a given hirudin mutein to evoke a specific measurable chromogenic response. Particularly suitable assays are exemplified herein using thrombin and the chromogenic thrombin substrate H-D-Phe-Pep-Arg-pNA. Other assay formats can be contemplated to also provide quantitative estimations of specific activity of the test molecules and permit ED50 determinations. […]
The functional activity of the modified hirudin proteins was assessed using a chromogenic thrombin inhibition assay. […] The chromogenic substrate H-D-Phe-Pep-Arg-pNA is then added and any residual free thrombin present will cleave the substrate to form H-D-Phe-Pep-Arg-OH and pNA that can then be detected spectrophotometrically at 405 nm […]
The plate was warmed to 37° C. for 5 minutes followed by addition of 40 μl thrombin and incubated for 120 seconds at 37° C. with shaking. […] 40 μl acetic acid was added to quench reaction and the plate was read spectrophotometrically at 405 nm. Absorbance at 405 nm vs hirudin concentration was plotted using Sigma plot (Sigma Poole, UK) and IC50 values calculated by fitting a sigmoidal equation. […]

10: 15 mer hirudin peptide GNKCILGSDGEKNQC, SEQ ID NO: 96 (hirudo medicinalis) [Peptide 10]
donor response (SI>2) (human PBMCs): 8%

15: 15 mer hirudin peptide VTGEGTPKPESHNDG, SEQ ID NO: 101 (hirudo medicinalis) [Peptide 15]
final response rate (human PBMCs; across a total of 55 donor samples): 4% | donor response (SI>2) (human PBMCs): 8%

CAAGSDGEKNQCVTG (modified hirudin sequence)
% donor response in time course (PBMC from healthy donors): 5%

CEKGSDGEKNQCVTG (modified hirudin sequence)
% donor response in time course (PBMC from healthy donors): 10%

CILGSDGEKNQCVTG (hirudo medicinalis) [reference compound]
% donor response in time course (PBMC from healthy donors): 25%

CRHGSDGEKNQCVTG (modified hirudin sequence)
% donor response in time course (PBMC from healthy donors): 5%

Hirudin
Ki (serine protease thrombin): 10^−11 to 10^−14 M

[Leu^1, Thr^2]-63-desulphohirudin [lepirudin]
fatal outcomes ([1]; among the severe anaphylaxis cases, previous treatment course 1 to 12 weeks earlier): 4 | patients judged to have had severe anaphylaxis ([1]; between 1994 and 2002, within minutes of intravenous administration): 9 patients

B1: M 25: hirudin mutein I29R L30R, SEQ ID NO: 28 (protein)
chain: VVYTDCTESGQNLCLCEGSVVCGQGNKCRRGSDGEKNQCVTGEGTPKPESHNDGDFEEIPEEYLQ
modifications: ends and bridges not checked
Relative Activity (Ratio of variant IC50/WT IC50) (thrombin): 0.70

B2: M 19: hirudin mutein I29E L30K, SEQ ID NO: 22 (protein)
chain: B1 chain with R29E, R30K
modifications: ends and bridges not checked
Relative Activity (Ratio of variant IC50/WT IC50) (thrombin): 1.0 and 0.55

Source: US7425533B2, “Modified hirudin proteins and T-cell epitopes in hirudin” (Merck Patent GmbH, priority 2003, dated 2008)
